Measurements as given in ChEMBL document CHEMBL1909046, “DrugMatrix in vitro pharmacology data”.

Assays:
[1] = biological target: Prostaglandin G/H synthase 1 (Homo sapiens, UniProt P23219); experiment: biochemical; format: tissue-based, Platelet; conditions: platelet;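 further: inhibition of COX-1 enzyme activity, with arachidonic acid supplied as substrate; in other assays of this panel Not Active means under 50% inhibition at 10 µM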
Endothelin-1 receptor = biological target: T1, Endothelin-1 receptor (Homo sapiens, UniProt P25101); format: cell membranes, CHO-K1, Membrane; conditions: cho-k1; further: in other assays of this panel Not Active means under 50% inhibition at 10 µM
T1 sequence (P25101 whole entry): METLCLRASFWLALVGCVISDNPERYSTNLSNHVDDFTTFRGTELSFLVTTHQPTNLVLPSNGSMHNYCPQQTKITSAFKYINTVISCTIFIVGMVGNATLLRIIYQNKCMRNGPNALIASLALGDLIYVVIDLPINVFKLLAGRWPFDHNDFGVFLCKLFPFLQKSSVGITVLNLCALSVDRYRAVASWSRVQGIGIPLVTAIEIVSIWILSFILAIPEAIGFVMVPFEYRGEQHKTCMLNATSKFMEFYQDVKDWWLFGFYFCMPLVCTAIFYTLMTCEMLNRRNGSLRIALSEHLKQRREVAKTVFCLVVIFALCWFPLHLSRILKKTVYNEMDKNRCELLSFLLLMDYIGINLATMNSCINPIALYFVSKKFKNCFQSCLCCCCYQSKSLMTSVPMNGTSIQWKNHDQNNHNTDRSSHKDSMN

Estrogen receptor = biological target: T2, Estrogen receptor (Homo sapiens, UniProt P03372); conditions: sf9; further: in other assays of this panel Not Active means under 50% inhibition at 10 µM
T2 sequence (P03372 whole entry): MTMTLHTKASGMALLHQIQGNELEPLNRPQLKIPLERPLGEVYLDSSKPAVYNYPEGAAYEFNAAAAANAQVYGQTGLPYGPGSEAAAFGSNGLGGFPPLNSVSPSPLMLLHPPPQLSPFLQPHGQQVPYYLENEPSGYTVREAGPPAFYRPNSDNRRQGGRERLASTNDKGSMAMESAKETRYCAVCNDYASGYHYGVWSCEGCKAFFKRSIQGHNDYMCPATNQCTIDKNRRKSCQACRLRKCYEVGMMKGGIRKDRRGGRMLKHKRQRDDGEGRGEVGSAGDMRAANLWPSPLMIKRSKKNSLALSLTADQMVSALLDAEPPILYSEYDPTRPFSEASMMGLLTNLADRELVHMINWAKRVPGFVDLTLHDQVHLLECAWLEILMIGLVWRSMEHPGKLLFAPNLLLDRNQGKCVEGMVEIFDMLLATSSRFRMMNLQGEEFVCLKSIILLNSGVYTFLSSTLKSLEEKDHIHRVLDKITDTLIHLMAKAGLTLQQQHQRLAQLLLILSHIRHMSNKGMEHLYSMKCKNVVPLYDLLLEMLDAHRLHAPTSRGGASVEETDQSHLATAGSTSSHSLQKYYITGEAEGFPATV

[2] = biological target: Sodium-dependent dopamine transporter (Homo sapiens, UniProt Q01959); experiment: DRUGMATRIX: Dopamine Transporter radioligand binding (ligand: [125I] RTI-55); format: cell membranes, CHO-K1, Membrane; conditions: cho-k1; Not Active = under 50% inhibition at 10 µM
Sodium-dependent dopamine transporter, sequence (Q01959 whole entry): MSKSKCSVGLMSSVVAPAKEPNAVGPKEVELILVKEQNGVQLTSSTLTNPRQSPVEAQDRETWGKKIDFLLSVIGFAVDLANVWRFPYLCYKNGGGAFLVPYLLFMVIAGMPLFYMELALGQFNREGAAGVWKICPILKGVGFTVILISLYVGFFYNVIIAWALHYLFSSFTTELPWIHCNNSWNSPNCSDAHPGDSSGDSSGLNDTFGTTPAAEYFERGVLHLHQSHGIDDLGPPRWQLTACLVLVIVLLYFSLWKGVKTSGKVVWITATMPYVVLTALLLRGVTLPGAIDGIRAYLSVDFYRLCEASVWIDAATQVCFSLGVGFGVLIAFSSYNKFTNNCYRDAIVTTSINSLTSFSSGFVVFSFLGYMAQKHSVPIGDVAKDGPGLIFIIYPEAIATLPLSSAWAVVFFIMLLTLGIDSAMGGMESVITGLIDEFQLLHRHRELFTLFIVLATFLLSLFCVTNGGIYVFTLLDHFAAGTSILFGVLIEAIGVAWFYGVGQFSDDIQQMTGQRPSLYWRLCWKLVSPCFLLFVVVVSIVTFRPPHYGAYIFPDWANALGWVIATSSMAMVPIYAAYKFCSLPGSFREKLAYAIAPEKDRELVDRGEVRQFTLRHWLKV

[3] = biological target: C-C chemokine receptor type 2 (Homo sapiens, UniProt P41597); format: cell membranes, CHO-K1, Membrane; conditions: cho-k1; further: in other assays of this panel Not Active means under 50% inhibition at 10 µM
C-C chemokine receptor type 2, sequence (P41597 whole entry): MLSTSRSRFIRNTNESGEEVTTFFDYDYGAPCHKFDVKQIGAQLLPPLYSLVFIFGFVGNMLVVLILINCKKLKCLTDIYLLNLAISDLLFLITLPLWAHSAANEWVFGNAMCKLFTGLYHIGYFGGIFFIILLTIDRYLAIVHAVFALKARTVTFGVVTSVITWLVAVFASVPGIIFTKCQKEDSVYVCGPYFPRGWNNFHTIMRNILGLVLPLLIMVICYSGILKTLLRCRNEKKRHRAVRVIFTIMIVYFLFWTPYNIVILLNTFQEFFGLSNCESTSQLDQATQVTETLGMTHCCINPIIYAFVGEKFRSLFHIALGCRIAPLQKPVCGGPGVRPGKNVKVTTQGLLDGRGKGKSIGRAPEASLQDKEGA

[4] = DRUGMATRIX: Serotonin (5-Hydroxytryptamine) 5-HT3 radioligand binding (ligand: [3H] GR-65630); format: cell membranes, Membrane; conditions: hek293; Not Active = under 50% inhibition at 10 µM
Thromboxane-A synthase = biological target: T3, Thromboxane-A synthase (Homo sapiens, UniProt P24557); experiment: biochemical; format: tissue-based, Platelet; conditions: platelet
T3 sequence (P24557 whole entry): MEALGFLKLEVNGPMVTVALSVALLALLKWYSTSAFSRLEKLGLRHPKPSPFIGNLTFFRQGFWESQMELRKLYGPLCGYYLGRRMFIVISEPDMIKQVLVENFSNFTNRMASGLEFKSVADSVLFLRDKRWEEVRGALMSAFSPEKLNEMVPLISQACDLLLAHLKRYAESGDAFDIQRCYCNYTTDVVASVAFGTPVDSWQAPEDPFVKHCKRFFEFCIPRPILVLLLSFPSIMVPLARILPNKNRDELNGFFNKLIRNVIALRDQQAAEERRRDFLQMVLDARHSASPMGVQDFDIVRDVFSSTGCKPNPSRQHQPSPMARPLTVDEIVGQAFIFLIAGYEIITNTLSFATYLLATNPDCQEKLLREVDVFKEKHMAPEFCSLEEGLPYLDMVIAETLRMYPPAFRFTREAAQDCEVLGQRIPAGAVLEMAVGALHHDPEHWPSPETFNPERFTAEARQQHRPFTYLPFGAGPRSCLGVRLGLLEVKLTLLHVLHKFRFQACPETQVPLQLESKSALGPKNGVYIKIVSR

Prostaglandin G/H synthase 1, sequence (P23219 whole entry): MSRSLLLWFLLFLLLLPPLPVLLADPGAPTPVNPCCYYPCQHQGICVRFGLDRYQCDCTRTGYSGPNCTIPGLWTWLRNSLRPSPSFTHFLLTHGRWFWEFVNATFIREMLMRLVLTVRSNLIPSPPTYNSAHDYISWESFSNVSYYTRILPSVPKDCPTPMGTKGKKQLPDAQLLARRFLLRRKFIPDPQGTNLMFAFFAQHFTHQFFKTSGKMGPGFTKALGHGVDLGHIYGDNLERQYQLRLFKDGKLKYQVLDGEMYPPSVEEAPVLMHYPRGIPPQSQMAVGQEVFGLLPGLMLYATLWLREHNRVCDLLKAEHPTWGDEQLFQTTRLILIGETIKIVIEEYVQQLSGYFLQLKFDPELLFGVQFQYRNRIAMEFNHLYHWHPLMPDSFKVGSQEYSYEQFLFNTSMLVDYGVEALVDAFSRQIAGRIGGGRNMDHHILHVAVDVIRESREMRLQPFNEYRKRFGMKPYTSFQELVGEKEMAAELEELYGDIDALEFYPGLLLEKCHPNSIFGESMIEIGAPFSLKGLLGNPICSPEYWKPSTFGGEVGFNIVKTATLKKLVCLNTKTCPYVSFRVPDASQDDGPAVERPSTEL

C1CCC(C(CC2CCCCN2)C2CCCCC2)CC1 (centres undefined) [PERHEXILINE]
Not Active: IC50 [1] | IC50 (Endothelin-1 receptor) | IC50 (Estrogen receptor) | IC50 [2] | IC50 [3] | IC50 [4] | Ki [4] | IC50 (Thromboxane-A synthase)

CCOc1ccc(NC(C)=O)cc1 [PHENACETIN]
Not Active: IC50 [1] | IC50 (Endothelin-1 receptor) | IC50 (Estrogen receptor) | IC50 [2] | IC50 [3] | IC50 [4] | Ki [4] | IC50 (Thromboxane-A synthase)

Cc1ccc(N(CC2=NCCN2)c2cccc(O)c2)cc1 [PHENTOLAMINE]
Not Active: IC50 [1] | IC50 (Endothelin-1 receptor) | IC50 (Estrogen receptor) | IC50 [2] | IC50 [3] | IC50 [4] | Ki [4] | IC50 (Thromboxane-A synthase)

CC(O)CO (centres undefined) [PROPYLENE GLYCOL]
Not Active: IC50 [1] | IC50 (Endothelin-1 receptor) | IC50 (Estrogen receptor) | IC50 [2] | IC50 [3] | IC50 [4] | Ki [4] | IC50 (Thromboxane-A synthase)

CADMIUM ACETATE
Not Active: IC50 [1] | Ki [1] | IC50 (Endothelin-1 receptor) | Ki (Endothelin-1 receptor) | IC50 (Estrogen receptor) | Ki (Estrogen receptor) | IC50 [2] | Ki [2] | IC50 [3] | Ki [3] | IC50 [4] | Ki [4] | IC50 (Thromboxane-A synthase) | Ki (Thromboxane-A synthase)

LEAD (II) ACETATE
Not Active: IC50 [1] | Ki [1] | IC50 (Endothelin-1 receptor) | Ki (Endothelin-1 receptor) | IC50 (Estrogen receptor) | Ki (Estrogen receptor) | IC50 [2] | Ki [2] | IC50 [3] | Ki [3] | IC50 [4] | Ki [4] | IC50 (Thromboxane-A synthase) | Ki (Thromboxane-A synthase)

LIPOPOLYSACCHARIDE E. COLI O55:B5
Not Active: IC50 [1] | Ki [1] | IC50 (Endothelin-1 receptor) | Ki (Endothelin-1 receptor) | IC50 (Estrogen receptor) | Ki (Estrogen receptor) | IC50 [2] | Ki [2] | IC50 [3] | Ki [3] | IC50 [4] | Ki [4] | IC50 (Thromboxane-A synthase) | Ki (Thromboxane-A synthase)
